Laboratory results taken from ChEMBL document CHEMBL6134868, “Novel Aryl Sulfonium Modification on Vancomycin to Tackle MRSA and VRE In Vitro and In Vivo through Dual Enhanced Cell-Wall and Membrane Inhibition” (J Med Chem, 2025).

What was measured:
Assay type in all cases: functional
Conditions in all cases: time 16-24 hrs
Staphylococcus aureus [1] = assay: Antibacterial activity against vancomycin-intermediate Staphylococcus aureus Mu50 incubated for 16 to 24 hrs by broth microdilution assay
Staphylococcus aureus [2] = assay: Antibacterial activity against methicillin-resistant Staphylococcus aureus USA300 LAC incubated for 16 to 24 hrs by broth microdilution assay
Enterococcus faecium [3] = assay: Antibacterial activity against vancomycin-resistant Enterococcus faecium Efm-HS-0649 harboring VanA phenotype incubated for 16 to 24 hrs by broth microdilution assay
Enterococcus faecium [4] = assay: Antibacterial activity against vancomycin-resistant Enterococcus faecium Efm-HS-08257 harboring VanM phenotype incubated for 16 to 24 hrs by broth microdilution assay
Enterococcus faecium [5] = assay: Antibacterial activity against vancomycin-resistant Enterococcus faecium Efm-HS-vb01 harboring VanB phenotype incubated for 16 to 24 hrs by broth microdilution assay
Enterococcus faecium [6] = assay: Antibacterial activity against vancomycin-resistant Enterococcus faecium Efm-HS-vb02 harboring VanB phenotype incubated for 16 to 24 hrs by broth microdilution assay
Escherichia coli = assay: Antibacterial activity against Escherichia coli AB1157 incubated for 16 to 24 hrs by broth microdilution assay
Acinetobacter baumannii [7] = assay: Antibacterial activity against carbapenem-resistant Acinetobacter baumannii CRAB-1 clinical isolate incubated for 16 to 24 hrs by broth microdilution assay
Acinetobacter baumannii [8] = assay: Antibacterial activity against Acinetobacter baumannii ATCC19606 incubated for 16 to 24 hrs by broth microdilution assay
Pseudomonas aeruginosa = assay: Antibacterial activity against Pseudomonas aeruginosa PAO1 incubated for 16 to 24 hrs by broth microdilution assay
Klebsiella pneumoniae = assay: Antibacterial activity against Klebsiella pneumoniae KP-1 incubated for 16 to 24 hrs by broth microdilution assay

SMILES	MIC (Staphylococcus aureus [1]) [µg/mL]	MIC (Staphylococcus aureus [2]) [µg/mL]	MIC (Enterococcus faecium [3]) [µg/mL]	MIC (Enterococcus faecium [4]) [µg/mL]	MIC (Enterococcus faecium [5]) [µg/mL]	MIC (Enterococcus faecium [6]) [µg/mL]	MIC (Escherichia coli) [µg/mL]	MIC (Acinetobacter baumannii [7]) [µg/mL]	MIC (Acinetobacter baumannii [8]) [µg/mL]	MIC (Pseudomonas aeruginosa) [µg/mL]	MIC (Klebsiella pneumoniae) [µg/mL]
CN[C@H](CC(C)C)C(=O)N[C@H]1C(=O)N[C@@H](CC(N)=O)C(=O)N[C@H]2C(=O)N[C@H]3C(=O)N[C@H](C(=O)N[C@H](C(=O)O)c4cc(O)cc(O)c4-c4cc3ccc4O)[C@H](O)c3ccc(c(Cl)c3)Oc3cc2cc(c3O[C@@H]2O[C@H](CO)[C@@H](O)[C@H](O)[C@H]2O[C@H]2C[C@](C)(NCCC[S+](C)C[C@@H](O)COc3ccccc3)[C@H](O)[C@H](C)O2)Oc2ccc(cc2Cl)[C@H]1O.O=C([O-])C(F)(F)F (some centres undefined)	1	0.25	16	16	16	4	128	128	128	> 128	> 128
CN[C@H](CC(C)C)C(=O)N[C@H]1C(=O)N[C@@H](CC(N)=O)C(=O)N[C@H]2C(=O)N[C@H]3C(=O)N[C@H](C(=O)N[C@H](C(=O)O)c4cc(O)cc(O)c4-c4cc3ccc4O)[C@H](O)c3ccc(c(Cl)c3)Oc3cc2cc(c3O[C@@H]2O[C@H](CO)[C@@H](O)[C@H](O)[C@H]2O[C@H]2C[C@](C)(NCCC[S+](C)C[C@H](O)COc3ccccc3)[C@H](O)[C@H](C)O2)Oc2ccc(cc2Cl)[C@H]1O.O=C([O-])C(F)(F)F (some centres undefined)	1	0.125	16	16	8	4	128	> 128	128	> 128	> 128
CN[C@H](CC(C)C)C(=O)N[C@H]1C(=O)N[C@@H](CC(N)=O)C(=O)N[C@H]2C(=O)N[C@H]3C(=O)N[C@H](C(=O)N[C@H](C(=O)NCCC[S+](C)CC(O)COc4ccccc4)c4cc(O)cc(O)c4-c4cc3ccc4O)[C@H](O)c3ccc(c(Cl)c3)Oc3cc2cc(c3O[C@@H]2O[C@H](CO)[C@@H](O)[C@H](O)[C@H]2O[C@H]2C[C@](C)(N)[C@H](O)[C@H](C)O2)Oc2ccc(cc2Cl)[C@H]1O.O=C([O-])C(F)(F)F (some centres undefined)	2	0.25	32	16	16	4	16	> 128	64	> 128	> 128
CN[C@H](CC(C)C)C(=O)N[C@H]1C(=O)N[C@@H](CC(N)=O)C(=O)N[C@H]2C(=O)N[C@H]3C(=O)N[C@H](C(=O)N[C@H](C(=O)O)c4cc(O)c(CNCCC[S+](C)CC(O)COc5ccc(-c6ccccc6)cc5)c(O)c4-c4cc3ccc4O)[C@H](O)c3ccc(c(Cl)c3)Oc3cc2cc(c3O[C@@H]2O[C@H](CO)[C@@H](O)[C@H](O)[C@H]2O[C@H]2C[C@](C)(N)[C@H](O)[C@H](C)O2)Oc2ccc(cc2Cl)[C@H]1O.O=C([O-])C(F)(F)F (some centres undefined)	≤ 0.063	≤ 0.063	4	4	≤ 0.063	≤ 0.063	16	32	16	> 128	> 128
CN[C@H](CC(C)C)C(=O)N[C@H]1C(=O)N[C@@H](CC(N)=O)C(=O)N[C@H]2C(=O)N[C@H]3C(=O)N[C@H](C(=O)N[C@H](C(=O)NCCC[S+](C)C[C@@H](O)COc4ccccc4)c4cc(O)cc(O)c4-c4cc3ccc4O)[C@H](O)c3ccc(c(Cl)c3)Oc3cc2cc(c3O[C@@H]2O[C@H](CO)[C@@H](O)[C@H](O)[C@H]2O[C@H]2C[C@](C)(N)[C@H](O)[C@H](C)O2)Oc2ccc(cc2Cl)[C@H]1O.O=C([O-])C(F)(F)F (some centres undefined)	2	0.25	32	16	16	2	16	> 128	64	> 128	> 128
CN[C@H](CC(C)C)C(=O)N[C@H]1C(=O)N[C@@H](CC(N)=O)C(=O)N[C@H]2C(=O)N[C@H]3C(=O)N[C@H](C(=O)N[C@H](C(=O)NCCC[S+](C)CC(O)COc4ccc(Cl)cc4)c4cc(O)cc(O)c4-c4cc3ccc4O)[C@H](O)c3ccc(c(Cl)c3)Oc3cc2cc(c3O[C@@H]2O[C@H](CO)[C@@H](O)[C@H](O)[C@H]2O[C@H]2C[C@](C)(N)[C@H](O)[C@H](C)O2)Oc2ccc(cc2Cl)[C@H]1O.O=C([O-])C(F)(F)F (some centres undefined)	1	≤ 0.063	16	8	8	4	16	128	32	128	> 128
CN[C@H](CC(C)C)C(=O)N[C@H]1C(=O)N[C@@H](CC(N)=O)C(=O)N[C@H]2C(=O)N[C@H]3C(=O)N[C@H](C(=O)N[C@H](C(=O)NCCC[S+](C)CC(O)COc4ccc(C(C)(C)C)cc4)c4cc(O)cc(O)c4-c4cc3ccc4O)[C@H](O)c3ccc(c(Cl)c3)Oc3cc2cc(c3O[C@@H]2O[C@H](CO)[C@@H](O)[C@H](O)[C@H]2O[C@H]2C[C@](C)(N)[C@H](O)[C@H](C)O2)Oc2ccc(cc2Cl)[C@H]1O.O=C([O-])C(F)(F)F (some centres undefined)	1	≤ 0.063	32	8	16	4	32	64	32	> 128	> 128
CN[C@H](CC(C)C)C(=O)N[C@H]1C(=O)N[C@@H](CC(N)=O)C(=O)N[C@H]2C(=O)N[C@H]3C(=O)N[C@H](C(=O)N[C@H](C(=O)NCCC[S+](C)CC(O)COc4ccc(C(F)(F)F)cc4)c4cc(O)cc(O)c4-c4cc3ccc4O)[C@H](O)c3ccc(c(Cl)c3)Oc3cc2cc(c3O[C@@H]2O[C@H](CO)[C@@H](O)[C@H](O)[C@H]2O[C@H]2C[C@](C)(N)[C@H](O)[C@H](C)O2)Oc2ccc(cc2Cl)[C@H]1O.O=C([O-])C(F)(F)F (some centres undefined)	1	≤ 0.063	16	8	8	4	32	64	32	128	> 128
CN[C@H](CC(C)C)C(=O)N[C@H]1C(=O)N[C@@H](CC(N)=O)C(=O)N[C@H]2C(=O)N[C@H]3C(=O)N[C@H](C(=O)N[C@H](C(=O)NCCC[S+](C)CC(O)COc4ccc(-c5ccccc5)cc4)c4cc(O)cc(O)c4-c4cc3ccc4O)[C@H](O)c3ccc(c(Cl)c3)Oc3cc2cc(c3O[C@@H]2O[C@H](CO)[C@@H](O)[C@H](O)[C@H]2O[C@H]2C[C@](C)(N)[C@H](O)[C@H](C)O2)Oc2ccc(cc2Cl)[C@H]1O.O=C([O-])C(F)(F)F (some centres undefined)	0.5	≤ 0.063	8	4	4	1	16	128	32	> 128	> 128
